We go through 3 compounds from ChEMBL document CHEMBL1944561, “Discovery and SAR exploration of a novel series of imidazo[4,5-b]pyrazin-2-ones as potent and selective mTOR kinase inhibitors” (Bioorg Med Chem Lett, 2011).

The IC50 is the concentration that inhibits the measured activity by half.

Test [1] has as its target Serine/threonine-protein kinase mTOR (Homo sapiens, UniProt P42345). The test is described as follows: Inhibition of mTOR.
The target in test [2] is T1, Serine/threonine-protein kinase Chk1 (Homo sapiens) (UniProt O14757).
T1 sequence (whole entry): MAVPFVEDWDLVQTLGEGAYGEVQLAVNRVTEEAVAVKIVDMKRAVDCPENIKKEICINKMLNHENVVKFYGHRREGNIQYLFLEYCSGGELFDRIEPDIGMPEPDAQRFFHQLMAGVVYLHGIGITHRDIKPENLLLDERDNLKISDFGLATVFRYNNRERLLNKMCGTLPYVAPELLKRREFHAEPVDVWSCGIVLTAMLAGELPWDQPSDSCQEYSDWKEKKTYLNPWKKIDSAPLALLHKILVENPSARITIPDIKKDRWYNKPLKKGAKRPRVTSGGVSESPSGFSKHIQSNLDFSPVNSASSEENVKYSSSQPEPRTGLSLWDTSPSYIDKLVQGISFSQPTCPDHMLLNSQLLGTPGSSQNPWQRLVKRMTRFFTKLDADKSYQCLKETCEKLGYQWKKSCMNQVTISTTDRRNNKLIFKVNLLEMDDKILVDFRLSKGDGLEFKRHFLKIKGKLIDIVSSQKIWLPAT
The test can be described thus: Inhibition of CHK1 assessed as activity remaining at 10 uM.

Test [3] concerns the target Tyrosine-protein kinase Fes/Fps (Homo sapiens) (UniProt P07332). The test is described as follows: Inhibition of Fes assessed as activity remaining at 10 uM.
Test [4] addresses Glycogen synthase kinase-3 alpha (Homo sapiens, UniProt P49840). The test can be described thus: Inhibition of GSK3alpha assessed as activity remaining at 10 uM.
The target of test [5] is Glycogen synthase kinase-3 beta (Homo sapiens) (UniProt P49841). The test is described as follows: Inhibition of GSK3-beta assessed as activity remaining at 10 uM.
The target in test [6] is T2, Inhibitor of nuclear factor kappa-B kinase subunit beta (Homo sapiens) (UniProt O14920).
T2 sequence (whole entry): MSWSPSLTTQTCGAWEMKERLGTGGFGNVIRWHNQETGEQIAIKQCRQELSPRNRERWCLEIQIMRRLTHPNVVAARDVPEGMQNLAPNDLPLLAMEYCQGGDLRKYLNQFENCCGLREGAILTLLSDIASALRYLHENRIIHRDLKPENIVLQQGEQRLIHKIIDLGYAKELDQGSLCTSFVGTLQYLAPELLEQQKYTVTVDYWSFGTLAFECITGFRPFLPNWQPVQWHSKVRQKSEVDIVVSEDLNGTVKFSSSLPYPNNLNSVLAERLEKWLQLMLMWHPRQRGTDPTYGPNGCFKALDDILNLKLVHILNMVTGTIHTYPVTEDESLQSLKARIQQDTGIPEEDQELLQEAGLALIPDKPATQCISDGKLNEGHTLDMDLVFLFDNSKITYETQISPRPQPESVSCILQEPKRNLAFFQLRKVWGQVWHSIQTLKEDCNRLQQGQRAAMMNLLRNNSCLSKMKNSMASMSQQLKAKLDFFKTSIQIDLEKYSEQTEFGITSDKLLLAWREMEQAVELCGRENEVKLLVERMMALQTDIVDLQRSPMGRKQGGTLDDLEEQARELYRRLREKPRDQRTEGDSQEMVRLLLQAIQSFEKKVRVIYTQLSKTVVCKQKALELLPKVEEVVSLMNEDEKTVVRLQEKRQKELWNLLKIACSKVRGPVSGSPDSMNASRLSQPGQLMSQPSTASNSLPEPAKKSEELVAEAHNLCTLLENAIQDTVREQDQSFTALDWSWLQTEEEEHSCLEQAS
The test can be described thus: Inhibition of IKK-beta assessed as activity remaining at 10 uM.

Test [7] concerns the target Mitogen-activated protein kinase 9 (Homo sapiens) (UniProt P45984). The test can be described thus: Inhibition of JNK2alpha2 assessed as activity remaining at 10 uM.
In test [8] the target is Mitogen-activated protein kinase 1 (Homo sapiens) (UniProt P28482). The test can be described thus: Inhibition of MAPK1 assessed as activity remaining at 10 uM.
Test [9] deals with Dual specificity mitogen-activated protein kinase kinase 1 (Homo sapiens) (UniProt Q02750). The test can be described thus: Inhibition of MEK1 assessed as activity remaining at 10 uM.
The target in test [10] is Serine/threonine-protein kinase PAK 4 (Homo sapiens) (UniProt O96013). The test can be described thus: Inhibition of PAK4 assessed as activity remaining at 10 uM.
Test [11] concerns the target Platelet-derived growth factor receptor alpha (Homo sapiens) (UniProt P16234). The test is described as follows: Inhibition of PDGFRalpha assessed as activity remaining at 10 uM.
A short description of test [12]: Inhibition of PKA assessed as activity remaining at 10 uM.
The target in test [13] is RAC-alpha serine/threonine-protein kinase (Homo sapiens) (UniProt P31749). The test can be described thus: Inhibition of PKB-alpha assessed as activity remaining at 10 uM.
For test [14], the target named is Protein kinase C theta type (Homo sapiens) (UniProt Q04759). The test is described as follows: Inhibition of PKC-theta assessed as activity remaining at 10 uM.
For test [15], the target named is Serine/threonine-protein kinase PLK3 (Homo sapiens) (UniProt Q9H4B4). The test can be described thus: Inhibition of Plk3 assessed as activity remaining at 10 uM.
The target of test [16] is Proto-oncogene tyrosine-protein kinase receptor Ret (Homo sapiens) (UniProt P07949). The test is described as follows: Inhibition of Ret assessed as activity remaining at 10 uM.
The target in test [17] is Ribosomal protein S6 kinase alpha-1 (Homo sapiens) (UniProt Q15418). The test can be described thus: Inhibition of Rsk1 assessed as activity remaining at 10 uM.
In test [18] the target is T3, Serine/threonine-protein kinase Sgk1 (Homo sapiens) (UniProt O00141).
T3 sequence (whole entry): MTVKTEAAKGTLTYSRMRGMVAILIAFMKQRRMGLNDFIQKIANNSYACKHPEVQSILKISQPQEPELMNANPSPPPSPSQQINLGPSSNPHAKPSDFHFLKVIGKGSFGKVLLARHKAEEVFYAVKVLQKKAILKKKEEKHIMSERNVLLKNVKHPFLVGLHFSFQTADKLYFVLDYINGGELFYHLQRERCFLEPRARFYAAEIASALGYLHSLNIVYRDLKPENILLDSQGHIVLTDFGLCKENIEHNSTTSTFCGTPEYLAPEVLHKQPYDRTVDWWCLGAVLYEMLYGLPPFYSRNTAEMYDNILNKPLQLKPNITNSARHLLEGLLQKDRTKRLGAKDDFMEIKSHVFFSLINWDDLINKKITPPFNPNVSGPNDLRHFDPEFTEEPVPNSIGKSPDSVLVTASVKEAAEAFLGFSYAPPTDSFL
The test can be described thus: Inhibition of SGK assessed as activity remaining at 10 uM.

Test [19] concerns PC-3. The test can be described thus: Antiproliferative activity against human PC3 cells.

Chain of Platelet-derived growth factor receptor alpha (Homo sapiens) (P16234 whole entry): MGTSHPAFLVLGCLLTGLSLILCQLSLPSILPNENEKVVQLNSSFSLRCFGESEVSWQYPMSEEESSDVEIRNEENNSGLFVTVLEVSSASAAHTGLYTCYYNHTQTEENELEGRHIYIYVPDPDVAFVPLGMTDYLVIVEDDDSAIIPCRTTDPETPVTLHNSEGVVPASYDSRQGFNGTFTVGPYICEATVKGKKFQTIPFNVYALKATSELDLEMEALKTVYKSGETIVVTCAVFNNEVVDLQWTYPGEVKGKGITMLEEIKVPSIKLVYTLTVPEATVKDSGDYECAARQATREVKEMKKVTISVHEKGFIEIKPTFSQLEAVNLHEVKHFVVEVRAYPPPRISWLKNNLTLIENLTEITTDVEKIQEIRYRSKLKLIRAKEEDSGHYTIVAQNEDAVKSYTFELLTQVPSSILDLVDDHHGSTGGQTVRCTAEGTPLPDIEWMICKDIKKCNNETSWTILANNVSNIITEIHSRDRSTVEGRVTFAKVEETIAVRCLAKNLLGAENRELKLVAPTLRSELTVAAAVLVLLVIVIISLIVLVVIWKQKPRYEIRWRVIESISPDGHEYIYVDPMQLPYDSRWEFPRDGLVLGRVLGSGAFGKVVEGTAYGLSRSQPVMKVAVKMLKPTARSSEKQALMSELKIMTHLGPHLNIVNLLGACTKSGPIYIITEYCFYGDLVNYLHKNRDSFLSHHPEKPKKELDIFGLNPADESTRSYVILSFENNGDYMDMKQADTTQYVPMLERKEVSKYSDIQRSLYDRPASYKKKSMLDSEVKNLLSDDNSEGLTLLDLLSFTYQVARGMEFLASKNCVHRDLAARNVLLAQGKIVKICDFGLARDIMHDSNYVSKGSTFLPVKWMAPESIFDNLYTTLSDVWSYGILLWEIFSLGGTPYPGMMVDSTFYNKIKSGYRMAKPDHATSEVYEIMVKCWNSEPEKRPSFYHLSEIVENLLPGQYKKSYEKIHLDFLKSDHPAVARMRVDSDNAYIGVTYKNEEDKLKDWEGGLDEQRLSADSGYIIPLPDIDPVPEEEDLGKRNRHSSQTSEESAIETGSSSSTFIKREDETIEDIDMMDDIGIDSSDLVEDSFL
Chain of RAC-alpha serine/threonine-protein kinase (Homo sapiens) (P31749 whole entry): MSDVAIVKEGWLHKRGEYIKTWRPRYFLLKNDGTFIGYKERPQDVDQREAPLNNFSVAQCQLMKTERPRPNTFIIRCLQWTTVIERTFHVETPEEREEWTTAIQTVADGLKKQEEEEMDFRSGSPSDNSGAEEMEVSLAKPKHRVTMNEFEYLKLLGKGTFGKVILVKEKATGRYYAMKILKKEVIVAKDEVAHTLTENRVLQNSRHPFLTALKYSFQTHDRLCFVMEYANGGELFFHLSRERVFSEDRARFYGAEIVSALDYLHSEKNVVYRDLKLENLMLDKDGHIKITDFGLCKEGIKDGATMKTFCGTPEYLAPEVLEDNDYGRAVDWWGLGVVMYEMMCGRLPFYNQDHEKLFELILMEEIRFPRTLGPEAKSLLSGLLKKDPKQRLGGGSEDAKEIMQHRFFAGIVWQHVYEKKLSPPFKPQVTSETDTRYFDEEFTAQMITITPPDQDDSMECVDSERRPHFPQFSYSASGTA
Chain of Glycogen synthase kinase-3 beta (Homo sapiens) (P49841 whole entry, looked up): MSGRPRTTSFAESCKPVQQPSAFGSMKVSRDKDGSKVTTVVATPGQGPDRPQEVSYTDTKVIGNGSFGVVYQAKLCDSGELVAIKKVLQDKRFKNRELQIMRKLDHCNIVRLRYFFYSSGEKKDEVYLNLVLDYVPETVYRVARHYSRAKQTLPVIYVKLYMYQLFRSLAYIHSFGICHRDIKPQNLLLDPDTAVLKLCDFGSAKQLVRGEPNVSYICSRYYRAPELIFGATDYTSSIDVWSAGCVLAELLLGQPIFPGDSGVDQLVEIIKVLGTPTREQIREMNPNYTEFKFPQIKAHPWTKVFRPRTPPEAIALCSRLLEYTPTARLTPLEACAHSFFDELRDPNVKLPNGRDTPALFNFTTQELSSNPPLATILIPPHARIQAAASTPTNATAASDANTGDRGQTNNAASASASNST
Chain of Tyrosine-protein kinase Fes/Fps (Homo sapiens) (P07332 whole entry): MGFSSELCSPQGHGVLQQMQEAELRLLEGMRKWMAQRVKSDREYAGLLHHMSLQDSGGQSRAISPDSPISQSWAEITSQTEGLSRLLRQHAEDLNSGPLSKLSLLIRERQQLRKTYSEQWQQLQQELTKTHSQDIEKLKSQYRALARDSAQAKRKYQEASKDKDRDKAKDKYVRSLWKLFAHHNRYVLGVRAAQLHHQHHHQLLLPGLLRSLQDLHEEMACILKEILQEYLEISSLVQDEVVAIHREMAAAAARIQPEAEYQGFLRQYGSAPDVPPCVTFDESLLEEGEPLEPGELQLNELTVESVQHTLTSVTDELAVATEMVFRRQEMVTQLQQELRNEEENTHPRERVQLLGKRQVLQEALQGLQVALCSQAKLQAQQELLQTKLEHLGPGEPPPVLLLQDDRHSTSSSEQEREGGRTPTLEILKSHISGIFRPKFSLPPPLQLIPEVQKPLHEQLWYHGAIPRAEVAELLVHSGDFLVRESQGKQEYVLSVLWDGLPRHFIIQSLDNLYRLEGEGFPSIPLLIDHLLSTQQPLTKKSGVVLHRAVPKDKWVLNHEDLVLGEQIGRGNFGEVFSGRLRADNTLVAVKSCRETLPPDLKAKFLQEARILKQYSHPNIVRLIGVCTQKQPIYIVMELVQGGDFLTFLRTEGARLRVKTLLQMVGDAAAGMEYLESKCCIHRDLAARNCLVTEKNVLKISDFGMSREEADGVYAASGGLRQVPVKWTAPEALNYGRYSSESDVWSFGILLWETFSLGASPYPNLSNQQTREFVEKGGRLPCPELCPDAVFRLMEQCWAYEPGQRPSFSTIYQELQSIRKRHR
Chain of Mitogen-activated protein kinase 9 (Homo sapiens) (P45984 whole entry, looked up): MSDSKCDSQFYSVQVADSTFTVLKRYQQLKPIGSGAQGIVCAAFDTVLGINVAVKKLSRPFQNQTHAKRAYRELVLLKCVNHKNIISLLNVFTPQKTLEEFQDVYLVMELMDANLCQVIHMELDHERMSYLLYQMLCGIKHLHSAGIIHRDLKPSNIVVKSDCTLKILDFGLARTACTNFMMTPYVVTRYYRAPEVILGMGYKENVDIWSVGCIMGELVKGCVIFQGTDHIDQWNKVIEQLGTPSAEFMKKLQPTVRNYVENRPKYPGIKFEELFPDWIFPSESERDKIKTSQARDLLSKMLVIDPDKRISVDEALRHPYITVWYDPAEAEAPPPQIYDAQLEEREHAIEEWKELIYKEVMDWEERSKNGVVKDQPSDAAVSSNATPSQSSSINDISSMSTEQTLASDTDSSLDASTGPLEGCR
Chain of Ribosomal protein S6 kinase alpha-1 (Homo sapiens) (Q15418 whole entry): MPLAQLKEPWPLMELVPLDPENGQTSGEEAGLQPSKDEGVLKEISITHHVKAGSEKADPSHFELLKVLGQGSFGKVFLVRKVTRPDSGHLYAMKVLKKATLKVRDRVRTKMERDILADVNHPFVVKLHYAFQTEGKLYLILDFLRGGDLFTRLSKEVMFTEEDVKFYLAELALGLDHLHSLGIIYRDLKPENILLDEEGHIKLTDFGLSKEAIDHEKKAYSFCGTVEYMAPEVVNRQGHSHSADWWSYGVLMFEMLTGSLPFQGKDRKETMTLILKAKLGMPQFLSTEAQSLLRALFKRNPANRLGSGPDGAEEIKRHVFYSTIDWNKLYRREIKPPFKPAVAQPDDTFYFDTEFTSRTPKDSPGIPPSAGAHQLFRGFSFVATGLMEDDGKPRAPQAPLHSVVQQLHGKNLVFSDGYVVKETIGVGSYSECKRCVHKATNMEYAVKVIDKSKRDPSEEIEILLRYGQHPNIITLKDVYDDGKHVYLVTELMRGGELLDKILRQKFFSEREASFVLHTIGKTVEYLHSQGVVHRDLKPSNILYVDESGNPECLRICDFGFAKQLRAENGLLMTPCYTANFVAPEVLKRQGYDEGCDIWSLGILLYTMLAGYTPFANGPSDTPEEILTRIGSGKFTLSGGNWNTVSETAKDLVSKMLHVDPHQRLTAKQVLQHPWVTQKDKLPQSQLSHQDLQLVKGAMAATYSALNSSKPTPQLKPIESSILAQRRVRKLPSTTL
Chain of Mitogen-activated protein kinase 1 (Homo sapiens) (P28482 whole entry): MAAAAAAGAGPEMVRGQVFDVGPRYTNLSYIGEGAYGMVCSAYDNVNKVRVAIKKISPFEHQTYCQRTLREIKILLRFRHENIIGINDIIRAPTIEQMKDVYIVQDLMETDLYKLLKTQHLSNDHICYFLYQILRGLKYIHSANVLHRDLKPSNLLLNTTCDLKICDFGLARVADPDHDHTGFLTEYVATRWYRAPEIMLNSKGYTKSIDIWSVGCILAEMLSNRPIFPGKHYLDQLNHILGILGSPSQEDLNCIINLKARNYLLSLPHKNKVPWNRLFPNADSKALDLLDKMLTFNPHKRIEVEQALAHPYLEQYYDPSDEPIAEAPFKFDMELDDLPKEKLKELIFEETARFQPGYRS
Chain of Serine/threonine-protein kinase PLK3 (Homo sapiens) (Q9H4B4 whole entry, looked up): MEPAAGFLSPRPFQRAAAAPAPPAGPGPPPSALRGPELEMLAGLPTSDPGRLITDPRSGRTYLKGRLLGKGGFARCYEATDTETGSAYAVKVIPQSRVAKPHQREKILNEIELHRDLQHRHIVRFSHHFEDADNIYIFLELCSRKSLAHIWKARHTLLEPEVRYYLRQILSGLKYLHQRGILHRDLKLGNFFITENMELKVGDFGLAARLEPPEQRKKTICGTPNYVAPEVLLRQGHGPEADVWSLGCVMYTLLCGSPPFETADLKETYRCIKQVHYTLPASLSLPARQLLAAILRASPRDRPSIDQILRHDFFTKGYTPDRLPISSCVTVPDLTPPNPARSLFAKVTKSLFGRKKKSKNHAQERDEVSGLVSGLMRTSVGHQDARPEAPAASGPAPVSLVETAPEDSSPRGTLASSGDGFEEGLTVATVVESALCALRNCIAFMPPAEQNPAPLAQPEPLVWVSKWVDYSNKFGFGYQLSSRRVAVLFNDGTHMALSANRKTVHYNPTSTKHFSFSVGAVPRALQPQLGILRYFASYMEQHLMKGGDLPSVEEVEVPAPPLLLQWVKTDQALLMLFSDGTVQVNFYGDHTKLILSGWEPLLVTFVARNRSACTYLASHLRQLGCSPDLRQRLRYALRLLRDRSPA

`CC(C)(O)c1ccc(-c2cnc3[nH]c(=O)n(CC4CCCCC4)c3n2)cc1`: the IC50 in test [1] came out at 30 nM; in test [19], 1380 nM. Besides, the Activity in [2] amounted to 93%; in test [3], 81%; in test [4], 16%; in test [5], 31%; in test [6] it was 91%; in test [7] it was 110%. Further, the Activity is 95% in [8]; 82% in test [9]; 87% in test [10]; 93% in test [11]; 95% in test [12]; 94% in test [13]. The Activity in test [14] turned out to be 80%; in test [15], 89%; in test [16], 77%; in test [17], 89%; in test [18] it was 96%.
As to `O=c1[nH]c2ncc(-c3ccc(-c4nc[nH]n4)cc3)nc2n1CC1CCOCC1`, the IC50 amounted to 2 nM in [1] and 1370 nM in test [19]. Also, the Activity worked out at 97% in [2]; 89% in test [3]; 39% in test [4]; 70% in [5]; 98% in [6]; 79% in test [7]. The Activity was found to be 86% in [8]; 84% in test [9]; 87% in [10]; 94% in test [11]; 95% in test [12]; 97% in test [13]. For the same compound, the Activity in [14] came to 82%; in test [15], 108%; in test [16], 84%; in test [17], 93%; in test [18] it was 97%.
In the case of `O=c1[nH]c2ncc(-c3ccc4[nH]cnc4c3)nc2n1CC1CCCCC1`, the IC50 in test [1] worked out at 21 nM; in test [19], 1160 nM. Also, the Activity in [2] amounted to 88%; in [3], 88%; in test [4], 3%; in test [5], 10%; in [6] it was 82%; in test [7], 85%. Also, the Activity turned out to be 110% in [8]; 79% in test [9]; 81% in test [10]; 85% in [11]; 90% in [12]; 92% in [13]. The Activity in test [14] came out at 73%; in test [15], 94%; in [16], 80%; in test [17], 74%; in test [18] it was 53%.
